# US20160022818A1, “PHARMACEUTICAL FORMULATION COMPRISING LIPASE INHIBITOR HAVING INCREASED DISSOLUTION RATE AND REDUCED SIDE EFFECTS, AND METHOD FOR PREPARING SAME” (UNIVERSITY-INDUSTRY FOUNDATION, YONSEI UNIVERSITY, priority 2013, published 2016)
# Assays:
# [1] = Comparative dissolution test; format: physicochemical; conditions: 900 ml 1% sodium lauryl sulfate, paddle 75 rpm, HPLC-UV
# Procedure: A comparative dissolution test was performed on the compositions prepared by Examples 1 to 3 and on the compositions prepared by Comparative Examples 1 and 2.
# [2] = Oily leakage test using SD-rat model; format: in vivo; conditions: of 26 SD-rats; 0.5 ml olive oil, oral 5 mg orlistat per kg, 6 hours later
# Procedure: 7-week old SD-rats were used, 0.5 ml of an olive oil was administered for each group, and a drug was suspended in a 0.25% HPMC solution to be orally administered to the rats (corresponds to 5 mg of orlistat per kg of the body weight). 6 hours later, the evaluation was assessed through the number of rats having oily leakage from their anuses.
# [3] = tested on: triglyceride levels in blood; assay: Measurement of triglyceride levels in blood by using SD-rat model; format: in vivo; conditions: SD-rats, oral 2.5 mg orlistat per kg
# Procedure: Using 7-week old SD-rats (Samtaco Bio Korea Inc.), 1 ml of an olive oil (Samchun Pure Chemical Co., Ltd., Korea) was administered to each group and a drug suspended in a 0.25% HPMC (hydroxypropylmethyl cellulose) solution (Shin-Etsu chemical, Japan) was orally administered to the rats (corresponds to 2.5 mg of orlistat per kg of the body weight). The control group was administered with distilled water instead of the drug suspension. The blood of rats was collected for a fixed time interval, the triglyceride levels in the blood were measured by Cleantech TG-S of Asan Pharmaceutical, and, with the triglyceride level in the blood before testing used as a standard, changes in triglyceride levels in the blood after administration of an olive oil and drugs were plotted in FIG. 4 and Table 4.
structure (smiles),measurement,setting,value
"CCCCCCCCCCC[C@@H](C[C@@H]1OC(=O)[C@H]1CCCCCC)OC(=O)[C@H](CC(C)C)NC=O [Comparative Example 1, orlistat]",Dissolution rate at 10 minutes,[1]; Table 1,7.0%
same,Dissolution rate at 10 minutes,"[1]; Table 3, various porous adsorbents",7.0%
same,Population having oily leakage,[2],17 rats
same,AUC0->12 h (triglyceride level in blood),[3]; 1 ml olive oil,648.0 ± 203.2 mg·h/dL
same,Cmax (triglyceride level in blood),[3]; 1 ml olive oil,140.7 ± 64.1 mg/dL
same,"Triglyceride level in blood (words, FIG. 4)",[3]; olive oil,did not show an increase
